Starred links: 1 amine or outer side, 2 acyl side, 3 side chain; linkers in the order of their positions; H or OH if unused. Non-standard residues stand in square brackets, D forms with d. Residues, ends and D or L forms follow the SMILES beside them. Groups on a side chain read outwards from the residue. No end group written: not given here. *: point of attachment. γGlu = O=C(O)[C@H](CCC(=O)[*:2])N[*:1]; Palmitoyl = CCCCCCCCCCCCCCCC(=O)*; NMeF = CN[C@@H](Cc1ccccc1)C(=O)O
Legend:
[1] = biological target: T1, Y1 (Homo sapiens, UniProt P25929); assay: Competitive and saturation binding, [^125I]-PYY, U2OS cells with Y1
T1 construct: host or cells: U2OS
T1 sequence (P25929 1-384): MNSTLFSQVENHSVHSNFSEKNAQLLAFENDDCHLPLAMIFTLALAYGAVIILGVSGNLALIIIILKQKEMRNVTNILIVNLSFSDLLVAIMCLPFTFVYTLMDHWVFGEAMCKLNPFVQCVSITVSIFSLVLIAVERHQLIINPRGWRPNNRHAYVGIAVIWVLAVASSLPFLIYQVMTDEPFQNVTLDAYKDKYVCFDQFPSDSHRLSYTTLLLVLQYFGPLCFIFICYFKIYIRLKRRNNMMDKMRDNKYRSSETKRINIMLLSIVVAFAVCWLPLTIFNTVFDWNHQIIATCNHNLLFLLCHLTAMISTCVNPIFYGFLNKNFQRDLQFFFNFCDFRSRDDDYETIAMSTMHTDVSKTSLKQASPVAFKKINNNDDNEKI
Procedure: (§1) Competition binding experiments were performed according to [45]. […] Binding experiments using U2OS cells were optimized and performed in assay buffer (50 mM Tris-Cl pH 7.4, 118 mM NaCl, 5 mM MgCl2, 4.7 mM KCl, 0.1% BSA) for cells stably expressing GHSR and (25 mM HEPES, 120 mM NaCl, 5 mM MgCl2, 4.7 mM KCl, 1 mM CaCl2, 0.5% BSA, 2 g/L glucose) for cells containing receptors Y1, Y2 and Y5. […] Cells were incubated for 60 min at room temperature (RT).
(§2) Experiments were carried out in duplicate at least three times, and Ki was calculated using the Cheng-Prusoff equation.
(§3) Data were analyzed by GraphPad Software (San Diego, CA, USA) and are presented as the means ± SEM. The saturation and competitive binding experiments were analyzed according to [46] using the Cheng-Prusoff equation [33]. The competitive binding curves were plotted compared to the best fit for single-binding site models, and half maximal inhibitory concentration (IC50) values were obtained from nonlinear regression analysis. From saturation binding experiments, the dissociation constant (Kd) and number of binding sites/cell (Bmax) were calculated. Inhibition constants (Ki) were calculated from IC50 values, Kd and the concentration of radioligands.

[2] = biological target: T2, DOR (Homo sapiens, UniProt P41143); assay: Beta-lactamase reporter gene assay (FRET), DOR; assay type: cell-based; details: β-lactamase assay, agonist mode, U2OS cells; mean ± SEM, 2–3 independent experiments in duplicates
T2 construct: host or cells: U2OS

[3] = biological target: T3, KOR (Homo sapiens, UniProt P41145); assay: cell-based
T3 construct: host or cells: CHO-K1

[4] = biological target: T4, MOR (Homo sapiens, UniProt P35372); assay: Beta-lactamase reporter gene assay (FRET), MOR; assay type: cell-based
T4 construct: host or cells: U2OS

[5] = biological target: T5, ORL-1 (Homo sapiens, UniProt P41146); assay: Beta-lactamase reporter gene assay (FRET), ORL-1; assay type: cell-based; details: β-lactamase assay, agonist mode, U2OS cells; mean ± SEM, 2–3 independent experiments in duplicates
T5 construct: host or cells: U2OS

[6] = biological target: T6, GPR10 (Homo sapiens, UniProt P49683); assay: Cell signaling by immunoblotting, CHO-K1 cells expressing GPR10; assay type: cell-based; details: dose-response 10^−11 to 10^−5 M, 5 min, 37 °C, immunoblot, at least two experiments
T6 construct: host or cells: CHO-K1
T6 sequence (P49683 1-370): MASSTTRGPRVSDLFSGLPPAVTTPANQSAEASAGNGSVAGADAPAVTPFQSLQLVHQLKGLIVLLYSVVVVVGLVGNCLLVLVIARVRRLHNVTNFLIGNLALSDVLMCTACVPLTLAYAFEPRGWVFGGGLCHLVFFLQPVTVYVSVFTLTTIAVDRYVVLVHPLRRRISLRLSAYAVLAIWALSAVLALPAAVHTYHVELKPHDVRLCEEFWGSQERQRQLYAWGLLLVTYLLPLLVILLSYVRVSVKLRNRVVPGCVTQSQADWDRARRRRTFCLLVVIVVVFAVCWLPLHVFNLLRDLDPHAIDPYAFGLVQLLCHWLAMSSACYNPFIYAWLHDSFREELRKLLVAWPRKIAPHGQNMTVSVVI
Procedure: (§4) Activation of signaling pathways was studied in the CHO-K1 cell lines containing GPR10, NPFF-R2 and NPFF-R1. Cells were seeded in 24-well plates at 30,000 cells/well in assay medium (growth medium without selective antibiotics) and were grown for 2 days. The day before the experiment, the medium was changed to serum-free medium. […] Cells were lysed with Laemmli sample buffer (62.5 mM Tris-HCl at pH 6.8, 2% SDS, 10% glycerol, 0.01% bromophenol blue, 5% β-mercaptoethanol, 50 mM NaF, and 1 mM Na3VO4). Samples were stored at −20 °C. Electrophoresis and immunoblotting were performed as described previously. For detection of signaling pathways, primary monoclonal antibodies (see Table 5 for the antibodies used) purchased from Cell Signaling Technology (Danvers, MA, USA) were used.
(§5) Experiments using immunoblotting were analyzed using one-way ANOVA followed by Dunnett’s post hoc test; p < 0.05 was considered statistically significant. Dose-response curves were obtained from nonlinear regression.

[7] = biological target: T7, NPFF-R2 (Homo sapiens, UniProt Q9Y5X5); assay: Intracellular Ca^2+ mobilization, AequoScreen CHO-K1 cells with NPFF-R2; assay type: cell-based; details: CHO-K1 NPFF-R2 aequorin cells; peptides 10^−12 to 10^−5 M; mean ± SEM, three times in duplicates; read-out: EC50 intracellular Ca^2+ release, NPFF-R2
T7 construct: host or cells: CHO-K1 (AequoScreen, co-expressing aequorin)
Procedure: The intracellular Ca^2+ level was measured using the AequoScreen stable CHO-K1 cell line containing NPFF-R2 purchased from Perkin Elmer according to the manufacturer’s protocol. Cells at 80–90% confluence cultured in media without selective antibiotics were detached (PBS pH 7.4 + 0.5 mM EDTA) and centrifuged. Cells resuspended in phenol red-free DMEM with 0.1% protease-free BSA and 5 µM coelenterazine h (Thermo Fisher Scientific Inc. Brand) were seeded at 50,000 cells/well in 96-well plates and incubated in the dark at RT with gentle agitation for 4 h. Peptides were tested at concentrations from 10^−12 to 10^−5 M. Luminescent light emission was recorded using a FlexStation 3 plate reader.
Ca^2+ release assay data are shown as the percentage of maximal response, and the results were analyzed by nonlinear regression as log agonist versus response using GraphPad software. Data are representative of at least three experiments, each performed in duplicate.

[8] = biological target: T8, Y2 (Homo sapiens, UniProt P49146); assay: Competitive and saturation binding, [^125I]-PYY, U2OS cells with Y2
T8 construct: host or cells: U2OS
T8 sequence (P49146 1-381): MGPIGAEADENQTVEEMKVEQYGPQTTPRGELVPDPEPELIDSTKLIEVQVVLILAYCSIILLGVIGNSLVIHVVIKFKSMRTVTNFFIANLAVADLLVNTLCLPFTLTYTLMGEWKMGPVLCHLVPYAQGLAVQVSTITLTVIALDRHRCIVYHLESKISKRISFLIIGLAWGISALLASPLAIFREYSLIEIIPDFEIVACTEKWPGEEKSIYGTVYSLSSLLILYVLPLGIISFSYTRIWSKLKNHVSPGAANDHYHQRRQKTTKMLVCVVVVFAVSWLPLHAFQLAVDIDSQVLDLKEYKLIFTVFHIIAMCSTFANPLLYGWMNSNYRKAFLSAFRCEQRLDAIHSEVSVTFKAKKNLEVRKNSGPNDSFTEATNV
Procedure: as §1, §2, §3

[9] = biological target: T7, NPFF-R2; assay: Cell signaling by immunoblotting, CHO-K1 cells expressing NPFF-R2; assay type: cell-based; details: dose-response 10^−11 to 10^−5 M, 5 min, 37 °C, immunoblot, at least two experiments
Procedure: as §4, with “Cells” for “Activation of signaling pathways was studied in the CHO-K1 cell lines containing GPR10, NPFF-R2 and NPFF-R1. Cells”
as §5

[10] = biological target: kappa-opioid receptor (UniProt P41145 1-380); assay: radioligand binding; competition with [^125I]-dynorphin A on plasma membranes of CHO-K1 cells with KOR, 5 µg protein/tube; 50 mM Tris-HCl pH 7.4, 60 mM NaCl, 1 mM MgCl2, 0.5% BSA; 60 min at RT; filtration; Ki by the Cheng-Prusoff equation
[11] = biological target: T9, GPR10 (human, UniProt P49683 1-370)
T9 sequence (looked up): T6 sequence (P49683 1-370)

[12] = biological target: T6, GPR10; assay: Competitive binding, [^125I]-PrRP31, CHO-K1 cells expressing GPR10; details: competition with [^125I]-PrRP31, CHO-K1 cells expressing human GPR10; mean ± SEM, 2–5 independent experiments in duplicates; Cheng-Prusoff; read-out: Ki GPR10 [^125I]-PrRP31
[13] = biological target: T10, NPFF-R2 (UniProt Q9Y5X5 1-522); assay: radioligand binding; competition with [^125I]-1DMe on plasma membranes of CHO-K1 cells with NPFF-R2 or NPFF-R1, 5 µg protein/tube; 50 mM Tris-HCl pH 7.4, 60 mM NaCl, 1 mM MgCl2, 0.5% BSA; 60 min at RT; filtration; Ki by the Cheng-Prusoff equation; details: one partner purified
T10 construct: also called NPFF-2R; source: CHO-K1 cell line (AequoScreen), bought: Perkin Elmer

[14] = biological target: T11, NPFF-R1 (UniProt Q9GZQ6 1-430); assay: as above; details: one partner purified
T11 construct: also called NPFF-1R; source: CHO-K1 cell line, bought: Perkin Elmer

CCCCCCCCCCCCCCCC(=O)N[C@@H](CCC(=O)NCCCC[C@H](NC(=O)[C@@H](NC(=O)[C@H](CCC(=O)O)NC(=O)[C@H](CCSC)NC(=O)[C@H](CO)NC(=O)[C@H](Cc1c[nH]cn1)NC(=O)[C@H](CCCNC(=N)N)NC(=O)[C@H](Cc1c[nH]cn1)NC(=O)[C@@H](NC(=O)[C@H](CCCNC(=N)N)NC(=O)[C@@H](N)CO)[C@@H](C)O)[C@@H](C)CC)C(=O)N[C@H](C(=O)N1CCC[C@H]1C(=O)N[C@@H](CC(=O)O)C(=O)N[C@H](C(=O)N[C@@H](CC(N)=O)C(=O)N1CCC[C@H]1C(=O)N[C@@H](C)C(=O)N[C@@H](Cc1c[nH]c2ccccc12)C(=O)N[C@@H](Cc1ccc(O)cc1)C(=O)N[C@@H](C)C(=O)N[C@@H](CO)C(=O)N[C@@H](CCCNC(=N)N)C(=O)NCC(=O)N[C@H](C(=O)N[C@@H](CCCNC(=N)N)C(=O)N1CCC[C@H]1C(=O)N[C@H](C(=O)NCC(=O)N[C@@H](CCCNC(=N)N)C(=O)N[C@@H](Cc1ccccc1)C(N)=O)C(C)C)[C@@H](C)CC)[C@@H](C)CC)[C@@H](C)O)C(=O)O [Palm^11-PrRP31] (H-SRTHRHSMEIK([γGlu-Palmitoyl])TPDINPAWYASRGIRPVGRF-NH2)
Ki [1]: > 10000 nM | EC50 [2]: > 10000 nM | EC50 [3]: > 10000 nM | EC50 [4]: > 10000 nM | EC50 [5]: > 10000 nM | EC50 of ERK activation [6]: in the nanomolar range | EC50 [7]: 18.7 ± 1.31 nM | Ki [8]: > 10000 nM

SRAHQHSMETRTPDINPAWYTGRGIRPVGRF-NH2 [PrRP31, prolactin-releasing peptide 31, reference compound]
EC50 of ERK activation [9]: in nanomolar concentrations | EC50 of ERK activation [6]: in the nanomolar range

[D-Pro10]-dynorphin A (peptide)
Ki [10]: 0.36 nM

human prolactin-releasing peptide 31
EC50, agonist mode, β-lactamase reporter assay [11]: 0.53 nM

CC(C)C[C@H](NC(=O)[C@H](N)Cc1ccc(O)cc1)C(=O)N(C)[C@@H](Cc1ccccc1)C(=O)N[C@@H](CCC(N)=O)C(=O)N1CCC[C@H]1C(=O)N[C@@H](CCC(N)=O)C(=O)N[C@@H](CCCN=C(N)N)C(=O)N[C@@H](Cc1ccccc1)C(N)=O [1DMe] (H-[dY]L[NMeF]QPQRF-NH2)
Ki [12]: > 10000 nM | EC50 [7]: 0.82 ± 0.15 nM

CC(C)C[C@H](NC(=O)[C@H](N)Cc1ccc(O)cc1)C(=O)N(C)[C@@H](Cc1ccccc1)C(=O)N[C@@H](CCC(N)=O)C(=O)N1CCC[C@H]1C(=O)N[C@@H](CCC(N)=O)C(=O)N[C@@H](CCCNC(=N)N)C(=O)N[C@@H](Cc1ccccc1)C(N)=O [1DMe] (H-[dY]L[NMeF]QPQRF-NH2)
EC50 of ERK activation [9]: in nanomolar concentrations

B1: 1DMe (peptide)
peptide: [dY]L[NMeF]QPQRF-NH2
modifications: N-terminus assumed
SMILES: CC(C)C[C@H](NC(=O)[C@H](N)Cc1ccc(O)cc1)C(=O)N(C)[C@@H](Cc1ccccc1)C(=O)N[C@@H](CCC(N)=O)C(=O)N1CCC[C@H]1C(=O)N[C@@H](CCC(N)=O)C(=O)N[C@@H](CCCNC(=N)N)C(=O)N[C@@H](Cc1ccccc1)C(N)=O
notes: numbers count on: the peptide NPFF; source: synthetic peptide, purified (HPLC, purity greater than 95%)
Ki [13]: 1.03 nM | Ki [14]: 0.79 nM

Source: PMC8396344, “Palmitoylation of Prolactin-Releasing Peptide Increased Affinity for and Activation of the GPR10, NPFF-R2 and NPFF-R1 Receptors: In Vitro Study” (International Journal of Molecular Sciences, 2021)
